Key:
Type in all cases: functional, cell-based
[1] = biological target: T1, Solute carrier organic anion transporter family member 1A1 (Rattus norvegicus, UniProt P46720); test: TP_TRANSPORTER: uptake in Oatp1-expressing HeLa cells; details: human
T1 sequence (P46720 whole entry): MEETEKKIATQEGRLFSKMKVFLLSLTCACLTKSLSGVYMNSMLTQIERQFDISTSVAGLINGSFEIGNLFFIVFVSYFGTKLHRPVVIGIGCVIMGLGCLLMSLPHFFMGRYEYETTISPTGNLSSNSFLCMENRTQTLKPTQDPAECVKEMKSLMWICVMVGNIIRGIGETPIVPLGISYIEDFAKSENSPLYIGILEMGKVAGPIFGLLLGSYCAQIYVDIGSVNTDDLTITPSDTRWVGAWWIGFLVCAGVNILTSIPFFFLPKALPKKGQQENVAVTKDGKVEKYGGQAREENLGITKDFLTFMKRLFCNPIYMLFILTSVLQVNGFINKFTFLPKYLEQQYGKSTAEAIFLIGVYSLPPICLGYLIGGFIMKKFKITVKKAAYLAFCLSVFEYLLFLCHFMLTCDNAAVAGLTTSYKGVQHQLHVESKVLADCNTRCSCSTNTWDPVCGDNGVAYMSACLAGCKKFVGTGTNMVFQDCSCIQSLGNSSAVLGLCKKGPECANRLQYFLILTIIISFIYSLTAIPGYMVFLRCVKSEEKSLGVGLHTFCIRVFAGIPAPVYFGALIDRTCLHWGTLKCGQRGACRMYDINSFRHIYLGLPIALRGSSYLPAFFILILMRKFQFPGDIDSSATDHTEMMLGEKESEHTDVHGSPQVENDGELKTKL

[2] = biological target: T2, Solute carrier organic anion transporter family member 1A2 (Homo sapiens, UniProt P46721); test: TP_TRANSPORTER: uptake in OATP-expressing HeLa cells
T2 sequence (P46721 whole entry): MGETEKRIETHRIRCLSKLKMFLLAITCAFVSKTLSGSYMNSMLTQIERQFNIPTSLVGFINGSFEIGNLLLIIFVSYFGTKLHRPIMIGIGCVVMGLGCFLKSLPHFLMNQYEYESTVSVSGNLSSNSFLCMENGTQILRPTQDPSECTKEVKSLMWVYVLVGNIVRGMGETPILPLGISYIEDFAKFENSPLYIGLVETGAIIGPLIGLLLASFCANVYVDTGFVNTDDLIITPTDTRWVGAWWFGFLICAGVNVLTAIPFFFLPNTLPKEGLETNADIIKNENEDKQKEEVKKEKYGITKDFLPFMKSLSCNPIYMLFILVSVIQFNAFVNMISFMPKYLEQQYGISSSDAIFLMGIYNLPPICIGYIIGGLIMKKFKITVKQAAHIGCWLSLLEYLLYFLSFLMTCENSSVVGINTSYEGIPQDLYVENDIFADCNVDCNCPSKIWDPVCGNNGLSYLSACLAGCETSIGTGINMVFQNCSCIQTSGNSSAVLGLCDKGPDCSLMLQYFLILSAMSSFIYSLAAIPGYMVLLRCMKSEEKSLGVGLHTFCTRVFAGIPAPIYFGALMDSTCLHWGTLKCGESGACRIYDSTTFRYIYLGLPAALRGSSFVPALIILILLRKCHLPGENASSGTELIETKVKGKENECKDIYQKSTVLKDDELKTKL

[3] = biological target: T3, Solute carrier organic anion transporter family member 1A4 (Rattus norvegicus, UniProt O35913); test: TP_TRANSPORTER: uptake in Oatp2-expressing HeLa cells; details: human
T3 sequence (O35913 whole entry): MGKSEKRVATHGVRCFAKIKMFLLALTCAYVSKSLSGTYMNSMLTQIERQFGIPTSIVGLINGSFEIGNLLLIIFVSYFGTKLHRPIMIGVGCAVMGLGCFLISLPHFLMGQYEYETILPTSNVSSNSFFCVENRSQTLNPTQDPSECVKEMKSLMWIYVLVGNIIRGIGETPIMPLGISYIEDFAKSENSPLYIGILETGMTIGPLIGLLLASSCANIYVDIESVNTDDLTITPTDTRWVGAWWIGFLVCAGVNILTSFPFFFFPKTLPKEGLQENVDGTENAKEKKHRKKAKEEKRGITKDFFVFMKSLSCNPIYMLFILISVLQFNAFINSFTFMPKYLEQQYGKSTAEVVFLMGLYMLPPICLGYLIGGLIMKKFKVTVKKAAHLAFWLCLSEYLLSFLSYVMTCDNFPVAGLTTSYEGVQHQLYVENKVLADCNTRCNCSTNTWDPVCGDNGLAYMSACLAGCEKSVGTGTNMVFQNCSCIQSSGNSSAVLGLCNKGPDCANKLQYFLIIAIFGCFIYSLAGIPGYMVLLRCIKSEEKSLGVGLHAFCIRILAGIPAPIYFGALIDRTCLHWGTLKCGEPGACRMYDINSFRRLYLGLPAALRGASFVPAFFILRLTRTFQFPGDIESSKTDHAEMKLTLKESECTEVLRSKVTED

CCOC(=O)[C@H](CCc1ccccc1)N[C@@H](C)C(=O)N1CCC[C@H]1C(=O)O [ENALAPRIL]
Activity [1]: substrate [+] | Activity [2]: is not a substrate [-] | Activity [3]: is not a substrate [-]

From ChEMBL document CHEMBL2074475, “Uptake of enalapril and expression of organic anion transporting polypeptide 1 in zonal, isolated rat hepatocytes” (Drug Metab Dispos, 2000)
